Patent publication US11306064B2, “Benzothia(di)azepine compounds and their use as bile acid modulators” (Albireo AB, priority 2018, dated 2022)
pIC50: −log10 of the molar value.

Assays:
Assay type in all cases: cell-based
Human ASBT = target: T1, Human ASBT (Homo sapiens, UniProt Q12908); experiment: ASBT (h/m) assay: 3H-taurocholic acid uptake in human ASBT-overexpressing cells; conditions: 0.25 μM 3H-taurocholic acid and 5 μM cold taurocholic acid, 20 minutes, read-out: hASBT IC50
T1 construct: expressed in transfected cells; kept under Puromycin selection
T1 sequence (Q12908 1-348): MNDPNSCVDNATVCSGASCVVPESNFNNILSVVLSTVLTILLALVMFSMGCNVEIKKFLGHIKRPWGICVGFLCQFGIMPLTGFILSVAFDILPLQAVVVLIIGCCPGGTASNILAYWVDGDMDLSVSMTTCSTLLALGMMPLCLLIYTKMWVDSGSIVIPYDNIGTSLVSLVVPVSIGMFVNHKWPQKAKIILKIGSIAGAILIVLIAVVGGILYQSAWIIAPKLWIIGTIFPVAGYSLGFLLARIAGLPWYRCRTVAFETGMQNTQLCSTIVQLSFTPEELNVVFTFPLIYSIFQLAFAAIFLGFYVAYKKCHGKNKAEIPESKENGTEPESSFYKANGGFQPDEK
Outline: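 ASBT-overexpressing cells, seeded 48 h earlier, took up 0.25 µM 3H-taurocholic acid plus 5 µM cold taurocholate for 20 min at 37 °C with inhibitor (10-point 3-fold series, top 10 µM, 0.2% DMSO). Ice stop, washes with cold 1 mM taurocholate in HEPES-HBSS pH 7.4, scintillation counting.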

Human LBAT = target: T2, Human LBAT (Homo sapiens, UniProt Q14973); experiment: LBAT (h/m) assay: 3H-taurocholic acid uptake in human LBAT-overexpressing cells; conditions: 0.3 μM 3H-taurocholic acid and 7.5 μM cold taurocholic acid, 20 minutes, read-out: hLBAT IC50
T2 construct: expressed in transfected cells; kept under Geneticin selection
T2 sequence (Q14973 1-349): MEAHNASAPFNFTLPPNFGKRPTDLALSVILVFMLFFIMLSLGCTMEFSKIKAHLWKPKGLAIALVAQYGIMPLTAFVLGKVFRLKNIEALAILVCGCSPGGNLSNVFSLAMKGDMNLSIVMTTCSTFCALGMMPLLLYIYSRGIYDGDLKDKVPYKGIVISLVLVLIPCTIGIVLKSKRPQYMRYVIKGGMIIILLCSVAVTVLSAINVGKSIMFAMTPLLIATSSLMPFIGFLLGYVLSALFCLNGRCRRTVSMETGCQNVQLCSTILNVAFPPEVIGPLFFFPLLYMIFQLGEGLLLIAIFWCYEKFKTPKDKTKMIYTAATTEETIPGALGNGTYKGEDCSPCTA
Outline: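 LBAT-overexpressing cells, serum-free MEM-alpha, 20 min at 37° C with inhibitor (3-fold, 10-point) plus 0.3 μM 3H-taurocholic acid and cold taurocholic acid (7.5 μM human; 25 μM mouse), 0.2% DMSO. Stopped on ice, washed with 1 mM unlabelled taurocholate; uptake by scintillation counting.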

HepaRG cells = experiment: HepaRG-based assay: 3H-taurocholic acid uptake in differentiated HepaRG cells; conditions: Homo sapiens, HepaRG, 0.3 μM 3H-taurocholic acid and 7.5 μM cold taurocholic acid, 30 minutes
Outline: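 Differentiated HepaRG cells cultured 7 days post-seeding were exposed for 30 min at 37 °C to 0.3 μM 3H-taurocholic acid plus 7.5 μM cold taurocholic acid with inhibitor (3-fold dilutions, 0.2% DMSO). Uptake was stopped on ice, washed with 1 mM unlabelled taurocholic acid, and counted by scintillation.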

| Compound | pIC50 (Human ASBT) | pIC50 (Human LBAT) | pIC50 (HepaRG cells) |
| --- | --- | --- | --- |
| CCCCC1(CCCC)CN(c2ccc(NS(=O)(=O)C3CC3)cc2)c2cc(SC)c(O/C=C/C(=O)O)cc2S(=O)(=O)C1 [Example 9, (E)-3-((3,3-dibutyl-5-(4-(cyclopropanesulfonamido)phenyl)-7-(methylthio)-1,1-dioxido-2,3,4,5-tetrahydro-1,5-benzothiazepin-8-yl)oxy)acrylic Acid] | 5.92 | 5.96 | 5.51 |
| CCCCC1(CCCC)CN(c2ccc(NS(C)(=O)=O)cc2)c2cc(SC)c(O/C=C/C(=O)O)cc2S(=O)(=O)C1 [Example 10, (E)-3-((3,3-dibutyl-5-(4-(methylsulfonamido)phenyl)-7-(methylthio)-1,1-dioxido-2,3,4,5-tetrahydro-1,5-benzothiazepin-8-yl)oxy)acrylic Acid] | 5.85 | 5.40 | 5.33 |
| CCCCC1(CC)CN(c2ccccc2)c2cc(OC)c(O/C=C/C(=O)O)cc2S(=O)(=O)C1 (stereo not drawn) [Example 13, (E)-3-((3-butyl-3-ethyl-7-methoxy-1,1-dioxido-5-phenyl-2,3,4,5-tetrahydro-1,5-benzothiazepin-8-yl)oxy)acrylic Acid] | 6.84 | 6.00 | 5.35 |
| CCCCC1(CCCC)CN(c2ccc(Br)cc2)c2cc(SC)c(O/C=C/C(=O)O)cc2S(=O)(=O)C1 [Example 15, (E)-3-((5-(4-bromophenyl)-3,3-dibutyl-7-(methylthio)-1,1-dioxido-2,3,4,5-tetrahydro-1,5-benzothiazepin-8-yl)oxy)acrylic Acid] | 6.60 | 6.27 | 5.65 |
| CCCCC1(CC)CN(c2ccccc2)c2ccc(O/C=C/C(=O)O)cc2S(=O)(=O)C1 (stereo not drawn) [Example 21, (E)-3-((3-butyl-3-ethyl-1,1-dioxido-5-phenyl-2,3,4,5-tetrahydro-1,5-benzothiazepin-8-yl)oxy)acrylic Acid] | 6.03 | 5.38 | 5.28 |
| CCCCC1(CCCC)CN(c2ccc(NC(=O)OC)cc2)c2cc(SC)c(O/C=C/C(=O)O)cc2S(=O)(=O)C1 [Example 24, (E)-3-((3,3-dibutyl-5-(4-((methoxycarbonyl)amino)phenyl)-7-(methylthio)-1,1-dioxido-2,3,4,5-tetrahydro-1,5-benzothiazepin-8-yl)oxy)acrylic Acid] | 5.33 | 6.65 | 5.64 |
| CCCCC1(CCCC)CN(c2ccc(NC(=O)OC(C)(C)C)cc2)c2cc(SC)c(O/C=C(\F)C(=O)O)cc2S(=O)(=O)C1 [Example 26, (Z)-3-((5-(4-((tert-butoxycarbonyl)amino)phenyl)-3,3-dibutyl-7-(methylthio)-1,1-dioxido-2,3,4,5-tetrahydro-1,5-benzothiazepin-8-yl)oxy)-2-fluoroacrylic Acid] | 5.49 | 7.28 | 6.32 |
| CCCCC1(CCCC)CN(c2ccc(NC(=O)C(C)(C)C)cc2)c2cc(SC)c(O/C=C/C(=O)O)cc2S(=O)(=O)C1 [Example 27, (E)-3-((3,3-dibutyl-7-(methylthio)-1,1-dioxido-5-(4-pivalamidophenyl)-2,3,4,5-tetrahydro-1,5-benzothiazepin-8-yl)oxy)acrylic Acid] | 5.32 | 7.34 | 6.46 |
| CCCCC1(CCCC)CN(c2ccc(NC(=O)C(C)(C)C)cc2)c2cc(SC)c(O/C=C(\F)C(=O)O)cc2S(=O)(=O)C1 [Example 28, (Z)-3-((3,3-dibutyl-7-(methylthio)-1,1-dioxido-5-(4-pivalamidophenyl)-2,3,4,5-tetrahydro-1,5-benzothiazepin-8-yl)oxy)-2-fluoroacrylic Acid] | 5.35 | 7.89 | 7.05 |
| CCCCC1(CCCC)CN(c2ccc(C(F)(F)F)cc2)c2cc(SC)c(O/C=C/C(=O)O)cc2S(=O)(=O)C1 [Example 32, (E)-3-((3,3-dibutyl-7-(methylthio)-1,1-dioxido-5-(4-(trifluoromethyl)phenyl)-2,3,4,5-tetrahydro-1,5-benzothiazepin-8-yl)oxy)acrylic Acid] | 6.68 | 6.30 | 6.17 |
| CCC1(CC)CN(c2ccccc2)c2cc(I)c(O/C=C/C(=O)O)cc2S(=O)(=O)C1 [Example 54, (E)-3-((3,3-diethyl-7-iodo-1,1-dioxido-5-phenyl-2,3,4,5-tetrahydro-1,5-benzothiazepin-8-yl)oxy)acrylic Acid] | 6.73 | 7.00 | 6.59 |

Now from value to molecule:

| pIC50 (Human ASBT) | pIC50 (Human LBAT) | pIC50 (HepaRG cells) | Compound |
| --- | --- | --- | --- |
| 6.66 | 6.13 | 5.50 | CCCCC1(CCCC)CN(c2ccccc2)c2cc(C3CC3)c(O/C=C/C(=O)O)cc2S(=O)(=O)C1 [Example 7, (E)-3-((3,3-dibutyl-7-cyclopropyl-1,1-dioxido-5-phenyl-2,3,4,5-tetrahydro-1,5-benzothiazepin-8-yl)oxy)acrylic Acid] |
| 6.32 | 6.41 | 5.58 | CCCCC1(CCCC)CN(c2ccccc2)c2cc(CC)c(O/C=C/C(=O)O)cc2S(=O)(=O)C1 [Example 12, (E)-3-((3,3-dibutyl-7-ethyl-1,1-dioxido-5-phenyl-2,3,4,5-tetrahydro-1,5-benzothiazepin-8-yl)oxy)acrylic Acid] |
| 6.52 | 5.85 | 5.29 | CCCCC1(CCCC)CN(c2ccccc2)c2cc(OC)c(O/C=C/C(=O)O)cc2S(=O)(=O)C1 [Example 14, (E)-3-((3,3-dibutyl-7-methoxy-1,1-dioxido-5-phenyl-2,3,4,5-tetrahydro-1,5-benzothiazepin-8-yl)oxy)acrylic Acid] |
| 6.89 | 6.11 | 5.54 | CCCCC1(CCCC)CN(c2ccc(OC)cc2)c2cc(SC)c(O/C=C/C(=O)O)cc2S(=O)(=O)C1 [Example 19, (E)-3-((3,3-dibutyl-5-(4-methoxyphenyl)-7-(methylthio)-1,1-dioxido-2,3,4,5-tetrahydro-1,5-benzothiazepin-8-yl)oxy)acrylic Acid] |
| 6.43 | 6.45 | 5.48 | CCCCC1(CCCC)CN(c2ccc(N(C)C)cc2)c2cc(SC)c(O/C=C/C(=O)O)cc2S(=O)(=O)C1 [Example 25, (E)-3-((3,3-dibutyl-5-(4-(dimethylamino)phenyl)-7-(methylthio)-1,1-dioxido-2,3,4,5-tetrahydro-1,5-benzothiazepin-8-yl)oxy)acrylic Acid] |
| 5.70 | 7.35 | 6.23 | CCCCC1(CCCC)CN(c2ccc(NC(=O)C3CCCC3)cc2)c2cc(SC)c(O/C=C/C(=O)O)cc2S(=O)(=O)C1 [Example 37, (E)-3-((3,3-dibutyl-5-(4-(cyclopentanecarboxamido)phenyl)-7-(methylthio)-1,1-dioxido-2,3,4,5-tetrahydro-1,5-benzothiazepin-8-yl)oxy)acrylic Acid] |
| 6.10 | 7.12 | 6.40 | CCC1(CC)CN(c2ccccc2)c2cc(SC)c(O/C=C/C(=O)O)cc2S(=O)(=O)C1 [Example 39, (E)-3-((3,3-diethyl-7-(methylthio)-1,1-dioxido-5-phenyl-2,3,4,5-tetrahydro-1,5-benzothiazepin-8-yl)oxy)acrylic Acid] |
| 5.34 | 6.97 | 5.82 | CCCCC1(CCCC)CN(c2ccc(NC(=O)CCC)cc2)c2cc(SC)c(O/C=C/C(=O)O)cc2S(=O)(=O)C1 [Example 40, (E)-3-((3,3-dibutyl-5-(4-butyramidophenyl)-7-(methylthio)-1,1-dioxido-2,3,4,5-tetrahydro-1,5-benzothiazepin-8-yl)oxy)acrylic Acid] |
| 5.84 | 6.70 | 5.50 | CCCCC1(CCCC)CN(c2ccccc2)c2ccc(O/C=C(\F)C(=O)O)cc2S(=O)(=O)C1 [Example 45, (Z)-3-((3,3-dibutyl-1,1-dioxido-5-phenyl-2,3,4,5-tetrahydro-1,5-benzothiazepin-8-yl)oxy)-2-fluoroacrylic Acid] |
| 6.55 | 7.21 | 6.10 | CCCCC1(CCCC)CN(c2ccccc2)c2cc(Cl)c(O/C=C(\F)C(=O)O)cc2S(=O)(=O)C1 [Example 53, (Z)-3-((3,3-dibutyl-7-chloro-1,1-dioxido-5-phenyl-2,3,4,5-tetrahydro-1,5-benzothiazepin-8-yl)oxy)-2-fluoroacrylic Acid] |
